Assay results published in paper PMC8288134, “Synthesis, potential antitumor activity, cell cycle analysis, and multitarget mechanisms of novel hydrazones incorporating a 4-methylsulfonylbenzene scaffold: a molecular docking study” (Journal of Enzyme Inhibition and Medicinal Chemistry, 2021).

What was measured:
COLO 205 = system: COLO 205; design: method as in https://dtp.cancer.gov/dtpstandard/dwindex/index.jsp; details: reference drugs, ref https://dtp.cancer.gov/dtpstandard/dwindex/index.jsp; cited from earlier work
MDA-MB-231/ATCC = system: MDA-MB-231/ATCC; design: method as in https://dtp.cancer.gov/dtpstandard/dwindex/index.jsp; details: reference drugs, ref https://dtp.cancer.gov/dtpstandard/dwindex/index.jsp; cited from earlier work
OVCAR-4 = system: OVCAR-4; design: method as in https://dtp.cancer.gov/dtpstandard/dwindex/index.jsp; details: reference drugs, ref https://dtp.cancer.gov/dtpstandard/dwindex/index.jsp; cited from earlier work
HCC-2998 [1] = system: HCC-2998; design: method as in https://dtp.cancer.gov/dtpstandard/dwindex/index.jsp; details: reference drugs, ref https://dtp.cancer.gov/dtpstandard/dwindex/index.jsp; cited from earlier work
K-562 = system: K-562; design: method as in https://dtp.cancer.gov/dtpstandard/dwindex/index.jsp; details: reference drugs, ref https://dtp.cancer.gov/dtpstandard/dwindex/index.jsp; cited from earlier work
MCF7 [2] = system: MCF7; design: method as in https://dtp.cancer.gov/dtpstandard/dwindex/index.jsp; details: reference drugs, ref https://dtp.cancer.gov/dtpstandard/dwindex/index.jsp; cited from earlier work
A498 = system: A498; design: method as in https://dtp.cancer.gov/dtpstandard/dwindex/index.jsp; details: reference drugs, ref https://dtp.cancer.gov/dtpstandard/dwindex/index.jsp; cited from earlier work
NCI-H23 = system: NCI-H23; design: method as in https://dtp.cancer.gov/dtpstandard/dwindex/index.jsp; details: reference drugs, ref https://dtp.cancer.gov/dtpstandard/dwindex/index.jsp; cited from earlier work
PC-3 = system: PC-3; design: method as in https://dtp.cancer.gov/dtpstandard/dwindex/index.jsp; details: reference drugs, ref https://dtp.cancer.gov/dtpstandard/dwindex/index.jsp; cited from earlier work
CAKI-1 [3] = system: CAKI-1; design: method as in https://dtp.cancer.gov/dtpstandard/dwindex/index.jsp; details: reference drugs, ref https://dtp.cancer.gov/dtpstandard/dwindex/index.jsp; cited from earlier work
NCI/ADR-RES = system: NCI/ADR-RES; design: method as in https://dtp.cancer.gov/dtpstandard/dwindex/index.jsp; details: reference drugs, ref https://dtp.cancer.gov/dtpstandard/dwindex/index.jsp; cited from earlier work
TK-10 = system: TK-10; design: method as in https://dtp.cancer.gov/dtpstandard/dwindex/index.jsp; details: reference drugs, ref https://dtp.cancer.gov/dtpstandard/dwindex/index.jsp; cited from earlier work
T-47D [4] = system: T-47D; design: method as in https://dtp.cancer.gov/dtpstandard/dwindex/index.jsp; details: reference drugs, ref https://dtp.cancer.gov/dtpstandard/dwindex/index.jsp; cited from earlier work
MALME-3M = system: MALME-3M; design: method as in https://dtp.cancer.gov/dtpstandard/dwindex/index.jsp; details: reference drugs, ref https://dtp.cancer.gov/dtpstandard/dwindex/index.jsp; cited from earlier work
IGROV1 = system: IGROV1; design: method as in https://dtp.cancer.gov/dtpstandard/dwindex/index.jsp; details: reference drugs, ref https://dtp.cancer.gov/dtpstandard/dwindex/index.jsp; cited from earlier work
HOP-92 = system: HOP-92; design: method as in https://dtp.cancer.gov/dtpstandard/dwindex/index.jsp; details: reference drugs, ref https://dtp.cancer.gov/dtpstandard/dwindex/index.jsp; cited from earlier work
[5] = system: full panel of 59 cancer cell lines; details: cited from earlier work; for GI50: read-out: GI50 MG-MID (full panel mean-graph midpoint), reference drugs, ref https://dtp.cancer.gov/dtpstandard/dwindex/index.jsp; for CC50: read-out: LC50 MG-MID (full panel mean-graph midpoint), reference drugs, ref https://dtp.cancer.gov/dtpstandard/dwindex/index.jsp; for TGI MG-MID (full panel mean-graph midpoint): reference drugs, ref https://dtp.cancer.gov/dtpstandard/dwindex/index.jsp
SW-620 [6] = system: SW-620; design: method as in https://dtp.cancer.gov/dtpstandard/dwindex/index.jsp; details: reference drugs, ref https://dtp.cancer.gov/dtpstandard/dwindex/index.jsp; cited from earlier work
786-0 = system: 786-0; design: method as in https://dtp.cancer.gov/dtpstandard/dwindex/index.jsp; details: reference drugs, ref https://dtp.cancer.gov/dtpstandard/dwindex/index.jsp; cited from earlier work
SNB-75 = test: NCI antitumor screen (SRB); assay type: cell-based; details: Homo sapiens, one dose 10 µM, read-out: Growth inhibition percentage (GI%)
T-47D [7] = test: NCI antitumor screen (SRB); assay type: cell-based; details: Homo sapiens, T47D, one dose 10 µM, read-out: Growth inhibition percentage (GI%)
SNB-19 = test: NCI antitumor screen (SRB); assay type: cell-based; details: Homo sapiens, one dose 10 µM, read-out: Growth inhibition percentage (GI%)
MCF7 [8] = test: NCI antitumor screen (SRB); assay type: cell-based; details: Homo sapiens, one dose 10 µM, read-out: Growth inhibition percentage (GI%)
SN12C = test: NCI antitumor screen (SRB); assay type: cell-based; details: Homo sapiens, one dose 10 µM, read-out: Growth inhibition percentage (GI%)
BT-549 = test: NCI antitumor screen (SRB); assay type: cell-based; details: Homo sapiens, one dose 10 µM, read-out: Growth inhibition percentage (GI%)
HT29 = test: NCI antitumor screen (SRB); assay type: cell-based; details: Homo sapiens, HT-29, one dose 10 µM, read-out: Growth inhibition percentage (GI%)
HCC-2998 [9] = test: NCI antitumor screen (SRB); assay type: cell-based; details: Homo sapiens, one dose 10 µM, read-out: Growth inhibition percentage (GI%)
OVCAR-3 = test: NCI antitumor screen (SRB); assay type: cell-based; details: Homo sapiens, one dose 10 µM, read-out: Growth inhibition percentage (GI%)
SW-620 [10] = test: NCI antitumor screen (SRB); assay type: cell-based; details: Homo sapiens, one dose 10 µM, read-out: Growth inhibition percentage (GI%)
HCT-15 = test: NCI antitumor screen (SRB); assay type: cell-based; details: Homo sapiens, one dose 10 µM, read-out: Growth inhibition percentage (GI%)
CAKI-1 [11] = test: NCI antitumor screen (SRB); assay type: cell-based; details: Homo sapiens, one dose 10 µM, read-out: Growth inhibition percentage (GI%)
MDA-MB-435 = test: NCI antitumor screen (SRB); assay type: cell-based; details: Homo sapiens, one dose 10 µM, read-out: Growth inhibition percentage (GI%)
SF-268 = test: NCI antitumor screen (SRB); assay type: cell-based; details: Homo sapiens, one dose 10 µM, read-out: Growth inhibition percentage (GI%)
HL60 cells = test: Cell cycle analysis (PI, flow cytometry); assay type: cell-based, human; details: HL60, 10.0 µM, 24 h
Protocol: Antitumor agents can induce apoptosis by activating signalling pathways, leading to G2/M phase arrest[73]^,[74]. Flow cytometry is used to measure cell growth in different cell cycle phases (pre-G1, G1, S, and G2/M)[73]^,[74]. […]. We used the solvent DMSO as a negative control. Briefly, we incubated HL60 cells with 10 µM compounds 6, 9, 16, and 20 for 24 h. Compounds 6, 9, 16, and 20 interfered with the normal cell cycle of HL60 cells. […] […].
Cell cycle analysis was carried out similar to our previous report using the Leukaemia HL-60 cell line stained with the DNA fluorochrome PI and analysed by FACSCalibur flow cytometer[40]^,[74].
Using a method similar to that of our previous report, cell cycle analysis was carried out using Leukemia HL-60 cell line, stained with the DNA fluorochrome PI, and analyzed by FACSCalibur flow cytometer. Leukemia HL-60 cell was seeded at a density of 2 × 10^5 cells/well and incubated for 24 h in six-well plates. Fetal bovine serum (10%) was added, and the cells were incubated at 37°C in an atmosphere of 5% CO2. The medium was replaced with 1% (v/v) dimethyl sulfoxide (DMSO), containing 10.0 μM of compound 9. […]
Afterward, […]
the samples were analyzed using a FACSCalibur flow cytometer. […]
(AA) to PGH2. […]

In the case of C#Cc1cccc(Nc2ncnc3cc(OCCOC)c(OCCOC)cc23)c1 [Erlotinib, erlotinib], the GI50 (COLO 205) is given as 50.1 µM, the GI50 (MDA-MB-231/ATCC) is given as 6.31 µM and the GI50 (OVCAR-4) is given as 10 µM. For the same compound, the GI50 (HCC-2998 [1]) was 79.4 µM, the GI50 (K-562) was 31.6 µM and the GI50 (MCF7 [2]) was 100 µM. For the same compound, the GI50 (A498) was 2.51 µM, the GI50 (NCI-H23) was 31.6 µM and the GI50 (PC-3) was 39.8 µM. For the same compound, the GI50 (CAKI-1 [3]) was 0.199 µM, the GI50 (NCI/ADR-RES) was 7.94 µM and the GI50 (TK-10) was 0.251 µM. For the same compound, the GI50 (T-47D [4]) was 3.98 µM, the GI50 (MALME-3M) was 1.58 µM and the GI50 (IGROV1) was 0.316 µM. For the same compound, the GI50 (HOP-92) was 3.98 µM, the GI50 [5] was 7.68 µM and the CC50 [5] was 95.6 µM. For the same compound, the “TGI MG-MID (full panel mean-graph midpoint)” value (“TGI MG-MID” for short) [5] was 66.3 µM, the GI50 (SW-620 [6]) was 79.4 µM and the GI50 (786-0) was 10 µM.
With Cc1ccc(C=NNC(=O)c2ccc(S(C)(=O)=O)cc2)cc1 [Compound 9, N'-(4-Methylbenzylidene)-4-(methylsulfonyl)benzohydrazide] the inhibition at 10 µM (SNB-75) was < 10%, the inhibition at 10 µM (T-47D [7]) was < 10% and the inhibition at 10 µM (SNB-19) was < 10%. The inhibition at 10 µM (MCF7 [8]) was 21.4%, the inhibition at 10 µM (SN12C) was < 10% and the inhibition at 10 µM (BT-549) was < 10%. The inhibition at 10 µM (HT29) was 17.7%, the inhibition at 10 µM (HCC-2998 [9]) was < 10% and the inhibition at 10 µM (OVCAR-3) was < 10%. It also gave an inhibition at 10 µM (SW-620 [10]) of 15.2%, an inhibition at 10 µM (HCT-15) of 16.3% and an inhibition at 10 µM (CAKI-1 [11]) of 25%. The inhibition at 10 µM (MDA-MB-435) was 47.5%, the inhibition at 10 µM (SF-268) was < 10% and the “%G0-G1” value (HL60 cells) was 43.15%. For the same compound, the “%G2-M” value (HL60 cells) was 29.44%, the “%Pre-G1” value (HL60 cells) was 16.89% and the “%S” value (HL60 cells) was 27.41%.
Work on O=c1[nH]cc(F)c(=O)[nH]1 [Compound 5-Fu, 5-fluorouracil, reference compound] yielded an inhibition at 10 µM (SNB-75) of 34.1%, an inhibition at 10 µM (T-47D [7]) of 43.3% and an inhibition at 10 µM (SNB-19) of 34.1%. It also gave an inhibition at 10 µM (MCF7 [8]) of 88.5%, an inhibition at 10 µM (SN12C) of 46% and an inhibition at 10 µM (BT-549) of 62.2%. The inhibition at 10 µM (HT29) was 72.9%, the inhibition at 10 µM (HCC-2998 [9]) was > 100% and the inhibition at 10 µM (OVCAR-3) was 52.6%. For the same compound, the inhibition at 10 µM (SW-620 [10]) was 49.9%, the inhibition at 10 µM (HCT-15) was 73.5% and the inhibition at 10 µM (CAKI-1 [11]) was 60.6%. For the same compound, the inhibition at 10 µM (MDA-MB-435) was 63.4%, the GI50 [5] was 0.9 µM and the CC50 [5] was 95.6 µM. The “TGI MG-MID” value [5] was 43.4 µM and the inhibition at 10 µM (SF-268) was 41%.
For CNC(=O)c1cc(Oc2ccc(NC(=O)Nc3ccc(Cl)c(C(F)(F)F)c3)cc2)ccn1 [Sorafenib, sorafenib], the GI50 (COLO 205) is listed as 1.99 µM, the GI50 (MDA-MB-231/ATCC) is listed as 1.26 µM and the GI50 (OVCAR-4) is listed as 3.16 µM. For the same compound, the GI50 (HCC-2998 [1]) was 3.16 µM, the GI50 (K-562) was 3.16 µM and the GI50 (MCF7 [2]) was 2.51 µM. The GI50 (A498) was 2.51 µM, the GI50 (NCI-H23) was 1.99 µM and the GI50 (PC-3) was 1.99 µM. For the same compound, the GI50 (CAKI-1 [3]) was 3.16 µM, the GI50 (NCI/ADR-RES) was 2.51 µM and the GI50 (TK-10) was 3.98 µM. For the same compound, the GI50 (MALME-3M) was 1.99 µM, the GI50 (IGROV1) was 2.51 µM and the GI50 [5] was 2.33 µM. For the same compound, the CC50 [5] was 43.1 µM, the “TGI MG-MID” value [5] was 9.11 µM and the GI50 (SW-620 [6]) was 2.51 µM. The GI50 (786-0) was 3.16 µM.
